Values after ≈ are worked out from the molar mass of the structure shown.
How the values were obtained:
Xanthomonas oryzae = type: cell-based; settings: agar dilution method
Alternaria kikuchiana = experiment: Antimicrobial activity, MIC by agar dilution method; type: cell-based
mice = experiment: Acute toxicity in mice; type: in vivo
Experimental: Acute toxicity (LD50) in mice; approximately 400 mg/kg (i.p.), and over 1000 mg/kg (p.o.)

Escherichia coli NIHJ = experiment: Antimicrobial activity, MIC by agar dilution method; type: cell-based
Mycobacterium smegmatis = experiment: as above; type: cell-based
leukemia P388 = experiment: Antitumor activity on leukemia P388; settings: i.p.; for ILS (Increased life span) P388: vs untreated control
[1] = tested on: Trichophyton interdigitalis; experiment: Antimicrobial activity, MIC by agar dilution method; type: cell-based
Microsporum gypseum = experiment: as above; type: cell-based
Aspergillus niger = experiment: as above; type: cell-based
Sarcina lutea ATCC 1001 = experiment: as above; type: cell-based; settings: Sarcina lutea ATCC 1001, agar dilution method
Pseudomonas aeruginosa = experiment: as above; type: cell-based
[2] = tested on: Bacillus subtilis PCI 219; experiment: as above; type: cell-based; settings: Bacillus subtilis PCI 219, agar dilution method
Candida albicans = experiment: as above; type: cell-based
Piricularia oryzae = type: cell-based
[3] = tested on: Ehrlich ascites carcinoma; experiment: Antitumor activity on Ehrlich ascites carcinoma; settings: i.p.; for ILS (Increased life span) Ehrlich: vs untreated control
Saccharomyces sake = experiment: Antimicrobial activity, MIC by agar dilution method; type: cell-based
[4] = tested on: Staphylococcus aureus FDA-209P; experiment: as above; type: cell-based
[5] = Day 1, 75 mg/kg/day, total 75 mg/kg
[6] = Day 1, 150 mg/kg/day, total 150 mg/kg
[7] = Day 1, 300 mg/kg/day, total 300 mg/kg
[8] = Days 1, 5, 9, 25 mg/kg/day, total 75 mg/kg
[9] = Days 1, 5, 9, 50 mg/kg/day, total 150 mg/kg
[10] = Days 1~9, 8.8 mg/kg/day, total 75 mg/kg
[11] = Days 1~9, 16.7 mg/kg/day, total 150 mg/kg
[12] = Days 1~9, 33.3 mg/kg/day, total 300 mg/kg

CO[C@H]1C[C@@H]2\C=C(C)/C=C/C=C\C(=O)N[C@H](c3ccccc3)C/C=C/CC[C@H](O)CC(=O)C2=C1O [stubomycin]
Minimum inhibitory concentration (MIC) (Xanthomonas oryzae): > 100 µg/mL | Minimum inhibitory concentration (MIC) (Alternaria kikuchiana): 6.3 µg/mL (≈ 13.2 µM) | Acute toxicity (LD50) (mice; i.p.): approximately 400 mg/kg | Acute toxicity (LD50) (mice; p.o.): over 1000 mg/kg | Minimum inhibitory concentration (MIC) (Escherichia coli NIHJ): > 200 µg/mL | Minimum inhibitory concentration (MIC) (Mycobacterium smegmatis): 3.1 µg/mL (≈ 6.49 µM) | MSD (Median survival day) P388 (leukemia P388; [5]): 17 days | ILS (Increased life span) P388 (leukemia P388; [5]): 42% | MSD (Median survival day) P388 (leukemia P388; [6]): 17 days | ILS (Increased life span) P388 (leukemia P388; [6]): 42% | MSD (Median survival day) P388 (leukemia P388; [7]): 17 days | ILS (Increased life span) P388 (leukemia P388; [7]): 42% | MSD (Median survival day) P388 (leukemia P388; [8]): 16 days | ILS (Increased life span) P388 (leukemia P388; [8]): 33% | MSD (Median survival day) P388 (leukemia P388; [9]): 15 days | ILS (Increased life span) P388 (leukemia P388; [9]): 25% | MSD (Median survival day) P388 (leukemia P388; [10]): 15 days | ILS (Increased life span) P388 (leukemia P388; [10]): 25% | MSD (Median survival day) P388 (leukemia P388; [11]): 11 days | ILS (Increased life span) P388 (leukemia P388; [11]): -8% | MSD (Median survival day) P388 (leukemia P388; [12]): 9 days | ILS (Increased life span) P388 (leukemia P388; [12]): -25% | Minimum inhibitory concentration (MIC) [1]: 6.3 µg/mL (≈ 13.2 µM) | Minimum inhibitory concentration (MIC) (Microsporum gypseum): 12.5 µg/mL (≈ 26.2 µM) | Minimum inhibitory concentration (MIC) (Aspergillus niger): > 100 µg/mL | Minimum inhibitory concentration (MIC) (Sarcina lutea ATCC 1001): 0.4 µg/mL (≈ 0.838 µM) | Minimum inhibitory concentration (MIC) (Pseudomonas aeruginosa): > 200 µg/mL | Minimum inhibitory concentration (MIC) [2]: 0.4 µg/mL (≈ 0.838 µM) | Minimum inhibitory concentration (MIC) (Candida albicans): > 100 µg/mL | Minimum inhibitory concentration (MIC) (Piricularia oryzae): 3.1 µg/mL (≈ 6.49 µM) | MSD (Median survival day) Ehrlich [3, 5]: 28 days | Number of cured mice, Ehrlich [3, 5]: 1 | ILS (Increased life span) Ehrlich [3, 5]: 47% | MSD (Median survival day) Ehrlich [3, 6]: 51 days | ILS (Increased life span) Ehrlich [3, 6]: 168% | MSD (Median survival day) Ehrlich [3, 7]: 21 days | ILS (Increased life span) Ehrlich [3, 7]: 11% | MSD (Median survival day) Ehrlich [3, 8]: 33 days | Number of cured mice, Ehrlich [3, 8]: 1 | ILS (Increased life span) Ehrlich [3, 8]: 74% | MSD (Median survival day) Ehrlich [3, 9]: 16 days | ILS (Increased life span) Ehrlich [3, 9]: -16% | ILS (Increased life span) Ehrlich [3, 10]: 11% | MSD (Median survival day) Ehrlich [3, 11]: 50 days | Number of cured mice, Ehrlich [3, 11]: 1 | ILS (Increased life span) Ehrlich [3, 11]: 163% | MSD (Median survival day) Ehrlich [3, 12]: 33 days | Number of cured mice, Ehrlich [3, 12]: 1 | ILS (Increased life span) Ehrlich [3, 12]: 74% | MSD (Median survival day) Ehrlich ([3]; Days 1~9, total 75 mg/kg): 21 days | Minimum inhibitory concentration (MIC) (Saccharomyces sake): > 200 µg/mL | Minimum inhibitory concentration (MIC) [4]: 3.1 µg/mL (≈ 6.49 µM)

— patent publication US4512976A, “Antibiotic stubomycin and process for the production thereof” (The Kitasato Institute, priority 1980, dated 1985)
